As usually defined, the LD50 is the dose at which mortality reaches 50%.

Type in all cases: in vivo
The subject of data set [1] is bean aphid (Aphis fabae Scop.). Briefly: Bean Aphid Foliage Spray Test. More on the design: key to pesticidal activity rating, Aphid: A: excellent control; B: partial control; C: no control. The settings on record: 500 parts per million, 24 hour. The procedure: Adults and nymphal stages of the bean aphid (Aphis fabae Scop.) reared on potted dwarf nasturtium plants at 65°-70° F. and 50-70 percent relative humidity, constituted the test insects. For testing purposes, the number of aphids per pot was standardized to 100-150 by trimming plants containing excess aphids.
The test compounds were formulated by diluting the stock suspension with water to give a suspension containing 500 parts of test compound per million parts of final formulation.
The potted plants (one pot per compound tested) infested with 100-150 aphids, were placed on a revolving turntable and sprayed with 100-110 milliliters of test compound formulation by use of a DeVilbiss spray gun set at 40 psig. air pressure. This application, which lasted 25 seconds, was sufficient to wet the plants to run-off. As a control, 100-110 milliliters of a water-acetone-emulsifier solution containing no test compound were also sprayed on infested plants. After spraying, the pots were placed on their sides on a sheet of white standard mimeograph paper which had been previously ruled to facilitate counting. Temperature and humidity in the test room during the 24 hour holding period were 65°-70° F. and 50-70 percent, respectively. Aphids which fell onto the paper and were unable to remain standing after being uprighted were considered dead. Aphids remaining on the plants were observed closely for movement and those which were unable to move the length of the body upon stimulation by prodding were considered dead. Percent mortality was recorded for various concentration levels.
(§1) In these tests the pesticidal activity of the compounds against aphid, mite, Southern Armyworm, Bean Beetle and House fly was rated as follows:
(§2) The LD50 values shown in the above Table II were determined by testing the compositions over an appropriate concentration range obtained by serial dilution of the stock suspension with water. The percent kill was plotted on log-probit graph paper versus parts per million concentration, and the LD50 read from an eye-fitted line drawn through the resultant points.

The test system of data set [2] is two-spotted mite (Tetranychus urticae Koch). Briefly: Mite Foliage Spray Test. Also noted: key to pesticidal activity rating, Mite: A: excellent control; B: partial control; C: no control. The conditions noted are these: 500 parts per million, 6 days. Here is the method: Adults and nymphal stages of the two-spotted mite (Tetranychus urticae Koch), reared on Tendergreen bean plants at 80±5 percent relative humidity, were the test organisms. Infested leaves from a stock culture were placed on the primary leaves of two bean plants 6 to 8 inches in height, growing in a 21/2 inch clay pot. 150-200 Mites, a sufficient number for testing, transferred from the excised leaves to the fresh plants in a period of 24 hours. Following the 24 hour transfer period, the excised leaves were removed from the infested plants. The test compounds were formulated by diluting the stock suspension with water to give a suspension containing 500 parts of test compound per million parts of final formulation. The potted plants (one pot per compound) were placed on a revolving turntable and sprayed with 100-110 milliliters of test compound formulation by use of a DeVilbiss spray gun set at 40 psig. air pressure. This application, which lasted 25 seconds, was sufficient to wet the plants to run-off. As a control, 100-110 milliliters of a water solution containing acetone and emulsifier in the same concentrations as the test compound formulation, but containing no test compound, were also sprayed on infested plants. The sprayed plants were held at 80±5 percent relative humidity for 6 days, after which a mortality count of motile forms was made. Microscopic examination for motile forms was made on the leaves of the test plants. Any individual which was capable of locomotion upon prodding was considered living.
as §1, §2

Data set [3] has as its system southern armyworm (Prodenia eridania, (Cram.)). The data set can be described thus: Southern Armyworm Leaf Spray Test. Also noted: key to pesticidal activity rating, Armyworm: A: excellent control; B: partial control; C: no control. The settings on record: 500 parts per million, 3 days. Here is the method: Larvae of the southern armyworm (Prodenia eridania, (Cram.)), reared on Tendergreen bean plants at a temperature of 80°±5° F. and a relative humidity of 50±5 percent, constituted the test insects.
The test compounds were formulated by diluting the stock suspension with water to give a suspension containing 500 parts of test compound per million parts of final formulation. Potted Tendergreen bean plants of standard height and age were placed on a revolving turntable and sprayed with 100-110 milliliters of test compound formulation by use of a DeVilbiss spray gun set at 10 psig air pressure. This application, which lasted 25 seconds, was sufficient to wet plants to run-off. As a control, 100-110 milliliters of a water-acetone-emulsifier solution containing no test compound were also sprayed on infested plants. When dry, the paired leaves were separated and each one was placed in a 9 centimeter Petri dish lined with moistened filter paper. Five randomly selected larvae were introduced into each dish and the dishes were closed. The closed dishes were labeled and held at 80°-85° F. for 3 days. Although the larvae could easily consume the whole leaf within 24 hours, no more food was added. Larvae which were unable to move the length of the body, even upon stimulation by prodding, were considered dead. Percent mortality was recorded for various concentration levels.
as §1, §2

Data set [4] has as its system Mexican bean beetle (Epilachna varivestis, Muls.). The data set can be described thus: Mexican Bean Beetle Leaf Spray Test. Also noted: key to pesticidal activity rating, Bean beetle: A: excellent control; B: partial control; C: no control. The conditions noted are these: leaf spray, 500 parts per million, 3 days. Here is the method:
Fourth instar larvae of the Mexican bean beetle (Epilachna varivestis, Muls.), reared on Tendergreen bean plants at a temperature of 80°±5° F. and 50±5 percent relative humidity, were the test insects.
The test compounds were formulated by diluting the stock suspension with water to give a suspension containing 500 parts of test compound per million parts of final formulation. Potted Tendergreen bean plants of standard height and age were placed on a revolving turntable and sprayed with 100-110 milliliters of test compound formulation by use of a DeVilbiss spray gun set at 10 psig air pressure. This application, which lasted 25 seconds, was sufficient to wet plants to run-off. As a control, 100-110 milliliters of a water-acetone-emulsifier solution containing no test compound were also sprayed on infested plants. When dry, the paired leaves were separated and each was placed in a 9 centimeter Petri dish lined with moistened filter paper. Five randomly selected larvae were introduced into each dish, and the dishes were closed. The closed dishes were labeled and held at a temperature of 80°±5° F. for 3 days. Although the larvae could easily consume the leaf within 24 to 48 hours, no more food was added. Larvae which were unable to move the length of the body, even upon stimulation, were considered dead.
as §1, §2

For data set [5], the system named is house flies (Musca domestica, L.). The data set can be described thus: Fly Bait Test. The conditions noted are these: 500 parts per million, 24 hours. Also noted: key to pesticidal activity rating, Housefly: A: excellent control; B: partial control; C: no control. The procedure: Four to 6 day old adult house flies (Musca domestica, L.), reared according to the specifications of the Chemical Specialities Manufacturing Association (Blue Book, McNair-Dorland Co., N.Y. 1954; pages 243-244, 261) under controlled conditions of 80°±5° F. and 50±5 percent relative humidity, were the test insects. The flies were immobilized by anesthetizing with carbon dioxide and twenty five immobilized individuals, males and females, were transferred to a cage consisting of a standard food strainer about 5 inches in diameter which was inverted over a wrapping-paper-covered surface. The test compounds were formulated by diluting the stock suspension with a 10 percent (by weight) sugar solution to give a suspension containing 500 parts of test compound per million parts of final formulation, by weight. Ten milliliters of the test formulation were added to a souffle cup containing a 1-inch square of an absorbent cotton pad. This bait cup was introduced and centered on the blotting paper under the food strainer prior to admitting the anesthetized flies. The caged flies were allowed to feed on the bait for 24 hours, at a temperature of 80°±5° F. and the relative humidity of 50±5 percent.
as §1, §2

Data set [6] is described as follows: Peroral toxicity to mammals (rat). The conditions noted are these: in vivo, po; rat, peroral, Table I; read-out: Rat P.O. LD50. The procedure:
Certain of these compositions were also evaluated to determine their peroral toxicity to mammals. The animal selected for this experiment was the rat. The test results obtained are expressed in terms of the number of milligrams of composition per kilogram of weight of the animal required to achieve a mortality rate of 50 percent (LD50).

SMILES strings stand for the structures.

Take `CN(SC(Cl)(Cl)Cl)C(=O)ON=C1CSC(C)(C)S1`: in data set [1], the “pesticidal activity rating, Aphid” value is listed as “A”. Also, in data set [2], the “pesticidal activity rating, Mite” value is “A”. Further, the “pesticidal activity rating, Armyworm” value in data set [3] is recorded as “C”. Besides, the “pesticidal activity rating, Bean beetle” value in data set [4] was “A”. For the same compound, in data set [5], the “pesticidal activity rating, Housefly” value is “A”.
As for `CN(SC(Cl)(Cl)Cl)C(=O)ON=C1SCCSC1(C)C`, in data set [1], the “pesticidal activity rating, Aphid” value is on record as “A”. Also, the “pesticidal activity rating, Mite” value in data set [2] was “A”. For the same compound, in data set [3], the “pesticidal activity rating, Armyworm” value is listed as “A”. The “pesticidal activity rating, Bean beetle” value in data set [4] is “A”. Also, in data set [5], the “pesticidal activity rating, Housefly” value is reported as “B”. For the same compound, in data set [6], the LD50 turned out to be 7.07 mg/kg.
With `CCCC1SCCSC1=NOC(=O)N(C)SC(Cl)(Cl)Cl` (centres unmarked), in data set [1], the “pesticidal activity rating, Aphid” value is listed as “B”. In addition, in data set [2], the “pesticidal activity rating, Mite” value is given as “C”. In data set [3], the “pesticidal activity rating, Armyworm” value is “C”. The “pesticidal activity rating, Bean beetle” value in data set [4] is “A”. The “pesticidal activity rating, Housefly” value in data set [5] is listed as “A”.
Take `CC1SCCSC1=NOC(=O)N(C)SC(Cl)(Cl)Cl` (centres unmarked): in data set [1], the “pesticidal activity rating, Aphid” value is recorded as “A”. The “pesticidal activity rating, Mite” value in data set [2] is reported as “A”. Moreover, in data set [3], the “pesticidal activity rating, Armyworm” value is “A”. Moreover, in data set [4], the “pesticidal activity rating, Bean beetle” value is listed as “A”. Also, the “pesticidal activity rating, Housefly” value in data set [5] is reported as “A”.
On to `CN(SC(Cl)(Cl)Cl)C(=O)ON=C1C[S+]([O-])CCS1` (centres unmarked) [2-O-[(N-METHYL-N-TRICHLOROMETHANESULFENYL) CARBAMOYLOXIMINO]-1,4-DITHIANE-4-OXIDE], for which the “pesticidal activity rating, Aphid” value in data set [1] is reported as “A”. The “pesticidal activity rating, Mite” value in data set [2] was “A”. Also, the “pesticidal activity rating, Armyworm” value in data set [3] is “A”. The “pesticidal activity rating, Bean beetle” value in data set [4] is “A”. Also, the “pesticidal activity rating, Housefly” value in data set [5] was “A”. Moreover, in data set [6], the LD50 came to 28.3 mg/kg.
`CN(SC(F)(F)F)C(=O)ON=C1CSCCS1` [2-O-[(N-METHYL-N-TRIFLUOROMETHANESULFENYL)-CARBAMOYLOXIMINO]-1,4-DITHIANE]: in data set [1], the “pesticidal activity rating, Aphid” value is on record as “A”. Also, in data set [2], the “pesticidal activity rating, Mite” value is “A”. Further, the “pesticidal activity rating, Armyworm” value in data set [3] is recorded as “A”. Also, the “pesticidal activity rating, Bean beetle” value in data set [4] is on record as “A”. For the same compound, in data set [5], the “pesticidal activity rating, Housefly” value is “A”.
Take `CN(SC(Cl)(Cl)Cl)C(=O)ON=C1CSCS1` [4-[(N-METHYL-N-TRICHLOROMETHANESULFENYL)-CARBAMOYLOXIMINO]-1,3-DITHIOLANE]: the “pesticidal activity rating, Aphid” value in data set [1] is “A”. The “pesticidal activity rating, Mite” value in data set [2] was “A”. Further, the “pesticidal activity rating, Armyworm” value in data set [3] is given as “A”. In data set [4], the “pesticidal activity rating, Bean beetle” value is recorded as “A”. Further, in data set [5], the “pesticidal activity rating, Housefly” value is on record as “A”. Moreover, the LD50 in data set [6] is 75 mg/kg.
Take `CNC(=O)ON=C1CSCS1` [drawing 5 --NHCH3, reference compound]: the “pesticidal activity rating, Aphid” value in data set [1] is reported as “A”. The “pesticidal activity rating, Mite” value in data set [2] is reported as “A”. In data set [3], the “pesticidal activity rating, Armyworm” value is on record as “A”. Besides, in data set [4], the “pesticidal activity rating, Bean beetle” value is listed as “A”. For the same compound, the “pesticidal activity rating, Housefly” value in data set [5] was “A”. Further, the LD50 in data set [6] worked out at 13 mg/kg.
Regarding `CNC(=O)ON=C1CSC(C)(C)S1` [drawing 6 --NHCH3, reference compound], the “pesticidal activity rating, Aphid” value in data set [1] is recorded as “A”. Also, the “pesticidal activity rating, Mite” value in data set [2] is recorded as “A”. The “pesticidal activity rating, Armyworm” value in data set [3] is “B”. Besides, the “pesticidal activity rating, Bean beetle” value in data set [4] is “A”. Also, the “pesticidal activity rating, Housefly” value in data set [5] is “A”.
Regarding `CCCC1SCCSC1=NOC(=O)NC` (centres unmarked) [drawing 9 --NHCH3, reference compound], the “pesticidal activity rating, Aphid” value in data set [1] is listed as “A”. For the same compound, the “pesticidal activity rating, Mite” value in data set [2] is reported as “C”. The “pesticidal activity rating, Armyworm” value in data set [3] was “C”. For the same compound, the “pesticidal activity rating, Bean beetle” value in data set [4] is reported as “A”. The “pesticidal activity rating, Housefly” value in data set [5] is listed as “A”.
`CNC(=O)ON=C1SCCSC1C` (centres unmarked) [drawing 11 --NHCH3, reference compound]: the “pesticidal activity rating, Aphid” value in data set [1] was “A”. Moreover, in data set [2], the “pesticidal activity rating, Mite” value was “A”. Moreover, the “pesticidal activity rating, Armyworm” value in data set [3] was “A”. Further, the “pesticidal activity rating, Bean beetle” value in data set [4] was “A”. Further, in data set [5], the “pesticidal activity rating, Housefly” value is “A”.

The record behind these values is patent US4111955A, “N-Trihalomethanesulfenyl carbamoyloximino di-sulfur heterocyclic compounds” (priority 1976, dated 1978).
